# Assay results: US11597919B2, “Systems, methods and compositions for sequence manipulation with optimized functional CRISPR-Cas systems” (The Broad Institute, Inc., priority 2013, dated 2023)
# Columns and labels:
# Factor VII = details: LNP siRNA systems containing these lipids; cited from earlier work
# [1] = system: genomic DNA in human embryonic kidney 293FT (HEK293FT) cells; assay: SURVEYOR nuclease assay of Cas9 and sgRNA mutants (Example 12); type: cell-based
# Method: (§1) Cells were transfected using Lipofectamine 2000 (Life Technologies) at 70-80% confluency following the manufacturer's recommended protocol.
# (§2) Genomic DNA was extracted using the QuickExtract DNA Extraction Solution (Epicentre) following the manufacturer's protocol.
# (§3) 400 ng total of the purified PCR products were mixed with 2 μl 10× Taq DNA Polymerase PCR buffer (Enzymatics) and ultrapure water to a final volume of 20 μl, and subjected to a re-annealing process to enable heteroduplex formation: 95° C. for 10 min, 95° C. to 85° C. ramping at −2° C./s, 85° C. to 25° C. at −0.25° C./s, and 25° C. hold for 1 min. After re-annealing, products were treated with SURVEYOR nuclease and SURVEYOR enhancer S (Transgenomics) following the manufacturer's recommended protocol, and analyzed on 4-20% Novex TBE poly-acrylamide gels (Life Technologies). Gels were stained with SYBR Gold DNA stain (Life Technologies) for 30 min and imaged with a Gel Doc gel imaging system (Bio-rad). Quantification was based on relative band intensities. Indel percentage was determined by the formula, 100×(1−(1−(b+c)/(a+b+c))^1/2), where a is the integrated intensity of the undigested PCR product, and b and c are the integrated intensities of each cleavage product.
# [2] = system: target DNA with 5′-NGG PAM; assay: Cleavage of target DNA bearing 5′-NGG PAM by PI domain chimeras (Example 12); type: cell-based, human; details: 5′-GGGCT
# Method: as §1, §2, §3
Molecule,gene silencing potency series (Factor VII),other results
"CCCCC/C=C\C/C=C\CCCCCCCCC1(CCCCCCCC/C=C\C/C=C\CCCCC)OCC(CCN(C)C)O1 (stereo not shown) [DLinKC2-DMA, 1,2-dilinoleyl-4-(2-dimethylaminoethyl)-[1,3]-dioxolane]",DLinKC2-DMA>DLinKDMA>DLinDMA>>DLinDAP,–
"1,2-dilinoleyloxy-keto-N,N-dimethyl-3-aminopropane [DLinKDMA]",DLinKC2-DMA>DLinKDMA>DLinDMA>>DLinDAP,–
"CCCCC/C=C\C/C=C\CCCCCCCCOCC(CN(C)C)OCCCCCCCC/C=C\C/C=C\CCCCC (stereo not shown) [DLinDMA, 1,2-dilinoleyloxy-3-N,N-dimethylaminopropane]",DLinKC2-DMA>DLinKDMA>DLinDMA>>DLinDAP,–
"CCCCC/C=C\C/C=C\CCCCCCCC(=O)OCC(CN(C)C)OC(=O)CCCCCCC/C=C\C/C=C\CCCCC (stereo not shown) [DLinDAP, 1,2-dilineoyl-3-dimethylammonium-propane]",DLinKC2-DMA>DLinKDMA>DLinDMA>>DLinDAP,–
"Cas9 (A175-307): Cas9 mutant lacking the REC2 domain, SEQ ID NO: 116 (protein) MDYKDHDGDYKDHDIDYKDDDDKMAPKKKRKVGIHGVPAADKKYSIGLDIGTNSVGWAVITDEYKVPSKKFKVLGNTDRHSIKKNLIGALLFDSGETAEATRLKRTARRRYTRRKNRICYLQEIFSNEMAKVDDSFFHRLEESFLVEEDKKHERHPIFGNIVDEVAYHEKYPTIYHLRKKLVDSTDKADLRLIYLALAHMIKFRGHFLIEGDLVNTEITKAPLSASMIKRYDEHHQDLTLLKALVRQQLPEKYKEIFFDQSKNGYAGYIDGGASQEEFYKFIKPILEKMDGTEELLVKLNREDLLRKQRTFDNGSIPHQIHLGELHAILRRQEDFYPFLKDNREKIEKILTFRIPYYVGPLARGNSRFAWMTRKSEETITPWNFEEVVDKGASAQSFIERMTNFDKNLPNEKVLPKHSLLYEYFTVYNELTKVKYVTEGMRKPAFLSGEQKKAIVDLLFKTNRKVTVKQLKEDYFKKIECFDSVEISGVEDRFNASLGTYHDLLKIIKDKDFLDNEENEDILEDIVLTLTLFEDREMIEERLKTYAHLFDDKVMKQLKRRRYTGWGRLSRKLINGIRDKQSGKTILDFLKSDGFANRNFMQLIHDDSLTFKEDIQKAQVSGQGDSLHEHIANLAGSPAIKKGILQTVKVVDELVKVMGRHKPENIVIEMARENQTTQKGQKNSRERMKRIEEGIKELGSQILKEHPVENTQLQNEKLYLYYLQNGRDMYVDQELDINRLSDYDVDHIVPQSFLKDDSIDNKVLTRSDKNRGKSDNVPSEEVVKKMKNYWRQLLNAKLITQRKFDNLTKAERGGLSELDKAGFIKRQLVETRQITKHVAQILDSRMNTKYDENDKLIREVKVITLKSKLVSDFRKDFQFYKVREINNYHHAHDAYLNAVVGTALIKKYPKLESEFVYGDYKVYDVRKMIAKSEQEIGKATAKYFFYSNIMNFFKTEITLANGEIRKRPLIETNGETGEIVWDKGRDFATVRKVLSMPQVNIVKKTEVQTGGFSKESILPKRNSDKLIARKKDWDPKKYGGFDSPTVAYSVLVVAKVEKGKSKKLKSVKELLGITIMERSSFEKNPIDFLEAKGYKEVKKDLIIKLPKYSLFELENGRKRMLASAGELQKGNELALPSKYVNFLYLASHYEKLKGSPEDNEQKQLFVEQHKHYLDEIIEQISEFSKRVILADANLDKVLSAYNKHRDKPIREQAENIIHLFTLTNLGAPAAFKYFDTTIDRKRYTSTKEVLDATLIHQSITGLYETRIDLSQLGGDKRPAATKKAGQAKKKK",–,"activity relative to wild-type Cas9 ([1]; indel, SURVEYOR, n=3): ~50%"
"St3-SpCas9: St3Cas9 with the PI domain of SpCas9, SEQ ID NO: 122 (protein) MAPKKKRKVGIHGVPAAMTKPYSIGLDIGTNSVGWAVTTDNYKVPSKKMKVLGNTSKKYIKKNLLGVLLFDSGITAEGRRLKRTARRRYTRRRNRILYLQEIFSTEMATLDDAFFQRLDDSFLVPDDKRDSKYPIFGNLVEEKAYHDEFPTIYHLRKYLADSTKKADLRLVYLALAHMIKYRGHFLIEGEFNSKNNDIQKNFQDFLDTYNAIFESDLSLENSKQLEEIVKDKISKLEKKDRILKLFPGEKNSGIFSEFLKLIVGNQADFRKCFNLDEKASLHFSKESYDEDLETLLGYIGDDYSDVFLKAKKLYDAILLSGFLTVTDNETEAPLSSAMIKRYNEHKEDLALLKEYIRNISLKTYNEVFKDDTKNGYAGYIDGKTNQEEEDFYVYLKKLLAEFEGADYFLEKIDREDFLRKQRTFDNGSIPYQIHLQEMRAILDKQAKFYPFLAKNKERIEKILTFRIPYYVGPLARGNSDFAWSIRKRNEKITPWNFEDVIDKESSAEAFINRMTSFDLYLPEEKVLPKHSLLYETFNVYNELTKVRFIAESMRDYQFLDSKQKKDIVRLYFKDKRKVTDKDIIEYLHAIYGYDGIELKGIEKQFNSSLSTYHDLLNIINDKEFLDDSSNEAIIEEIIHTLTIFEDREMIKQRLSKFENIFDKSVLKKLSRRHYTGWGKLSAKLINGIRDEKSGNTILDYLIDDGISNRNFMQLIHDDALSFKKKIQKAQIIGDEDKGNIKEVVKSLPGSPAIKKGILQSIKIVDELVKVMGGRKPESIVVVVEMARENQYTNQGKSNSQQRLKRLEKSLKELGSKILKENIPAKLSKIDNNALQNDRLYLYYLQNGKDMYTGDDLDIDRLSNYDIDHIIPQAFLKDNSIDNKVLVSSASNRGKSDDVPSLEVVKKRKTFWYQLLKSKLISQRKFDNLTKAERGGLSPEDKAGFIQRQLVETRQITKHVARLLDEKFNNKKDENNRAVRTVKIITLKSTLVSQFRKDFELYKVREINDFHHAHDAYLNAVVASALLKKYPKLEPEFVYGDYPKYNSFRERKSATEKVYFYSNIMNIFKKSISLADGRVIERPLIEVNEETGESVWNKESDLATVRRVLSYPQVNVVKKTEVQTGGFSKESILPKRNSDKLIARKKDWDPKKYGGFDSPTVAYSVLVVAKVEKGKSKKLKSVKELLGITIMERSSFEKNPIDFLEAKGYKEVKKDLIIKLPKYSLFELENGRKRMLASAGELQKGNELALPSKYVNFLYLASHYEKLKGSPEDNEQKQLFVEQHKHYLDEIIEQISEFSKRVILADANLDKVLSAYNKHRDKPIREQAENIIHLFTLTNLGAPAAFKYFDTTIDRKRYTSTKEVLDATLIHQSITGLYETRIDLSQLGGDKRPAATKKAGQAKKKK",–,cleavage of target DNA with 5′-NGG PAM [2]: cleaved
"A1099-1368: SpCas9 with deletion of the PI domain, SEQ ID NO: 118 (protein) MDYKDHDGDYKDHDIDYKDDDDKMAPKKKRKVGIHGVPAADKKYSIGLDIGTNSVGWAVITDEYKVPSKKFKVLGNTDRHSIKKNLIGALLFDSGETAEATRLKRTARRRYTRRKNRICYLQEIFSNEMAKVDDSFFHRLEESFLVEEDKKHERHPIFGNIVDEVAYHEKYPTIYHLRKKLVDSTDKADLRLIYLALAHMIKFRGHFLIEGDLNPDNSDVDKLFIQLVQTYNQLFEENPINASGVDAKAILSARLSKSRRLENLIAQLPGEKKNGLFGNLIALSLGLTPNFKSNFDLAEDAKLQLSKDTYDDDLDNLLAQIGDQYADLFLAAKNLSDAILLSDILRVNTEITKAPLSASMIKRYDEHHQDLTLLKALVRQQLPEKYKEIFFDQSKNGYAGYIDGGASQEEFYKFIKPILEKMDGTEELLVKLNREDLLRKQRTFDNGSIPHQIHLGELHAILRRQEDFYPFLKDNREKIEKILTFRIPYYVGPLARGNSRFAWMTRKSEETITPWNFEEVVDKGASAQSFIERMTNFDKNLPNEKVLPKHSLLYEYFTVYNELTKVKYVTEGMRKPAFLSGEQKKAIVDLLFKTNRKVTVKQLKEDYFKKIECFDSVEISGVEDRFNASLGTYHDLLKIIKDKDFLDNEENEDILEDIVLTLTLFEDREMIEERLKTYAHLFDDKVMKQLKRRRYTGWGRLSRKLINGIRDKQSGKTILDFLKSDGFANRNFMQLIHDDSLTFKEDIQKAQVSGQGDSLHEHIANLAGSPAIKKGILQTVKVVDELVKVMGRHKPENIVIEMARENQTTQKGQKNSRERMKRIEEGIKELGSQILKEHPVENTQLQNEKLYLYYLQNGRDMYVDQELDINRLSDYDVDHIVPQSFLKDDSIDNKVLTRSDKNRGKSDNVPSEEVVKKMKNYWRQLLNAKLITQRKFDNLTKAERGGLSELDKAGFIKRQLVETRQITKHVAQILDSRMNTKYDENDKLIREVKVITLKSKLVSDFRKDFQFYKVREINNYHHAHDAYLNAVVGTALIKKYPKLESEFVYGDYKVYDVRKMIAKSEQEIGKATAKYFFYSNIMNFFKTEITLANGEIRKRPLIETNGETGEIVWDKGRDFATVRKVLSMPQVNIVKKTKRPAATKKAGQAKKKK",–,DNA cleavage activity ([1]; Cas9 truncation and point mutants): abolished the cleavage activity
